Measured values taken from the NIST ThermoML archive (doi:10.1016/j.fluid.2014.04.018).
Numbers after ± are expanded uncertainties.

Conditions: Liquid, Vibrating tube method

CCCCOC(=O)CCCCC(=O)OCCCC [dibutyl hexanedioate]
Conditions | mass density [kg/m3]
293.15 K, 100 kPa | 960.6 ± 3.8
293.15 K, 2510 kPa | 962.2 ± 3.9
293.15 K, 4990 kPa | 963.7 ± 3.9
293.15 K, 5000 kPa | 963.7 ± 3.9
293.15 K, 7510 kPa | 965.3 ± 3.9
293.15 K, 9990 kPa | 966.9 ± 3.9
293.15 K, 10000 kPa | 966.9 ± 3.9
293.15 K, 15010 kPa | 969.9 ± 3.9
293.15 K, 20000 kPa | 972.9 ± 3.9
293.15 K, 29990 kPa | 978.6 ± 3.9
293.15 K, 39800 kPa | 983.9 ± 3.9
293.15 K, 39860 kPa | 983.8 ± 3.9
293.15 K, 50020 kPa | 989.1 ± 4
293.15 K, 68080 kPa | 997.3 ± 4
293.15 K, 68090 kPa | 997.7 ± 4
313.15 K, 100 kPa | 943.7 ± 3.8
313.15 K, 2500 kPa | 945.4 ± 3.8
313.15 K, 5020 kPa | 947.2 ± 3.8
313.15 K, 7510 kPa | 948.9 ± 3.8
313.15 K, 9990 kPa | 950.5 ± 3.8
313.15 K, 15000 kPa | 953.9 ± 3.8
313.15 K, 20000 kPa | 957.1 ± 3.8
313.15 K, 30010 kPa | 963.3 ± 3.9
313.15 K, 39810 kPa | 969 ± 3.9
313.15 K, 50000 kPa | 974.6 ± 3.9
313.15 K, 67990 kPa | 983.8 ± 3.9
333.15 K, 100 kPa | 926.8 ± 3.7
333.15 K, 2500 kPa | 928.7 ± 3.7
333.15 K, 5010 kPa | 930.6 ± 3.7
333.15 K, 7520 kPa | 932.5 ± 3.7
333.15 K, 10010 kPa | 934.3 ± 3.7
333.15 K, 15040 kPa | 938 ± 3.8
333.15 K, 20000 kPa | 941.4 ± 3.8
333.15 K, 30030 kPa | 948.2 ± 3.8
333.15 K, 39800 kPa | 954.3 ± 3.8
333.15 K, 50030 kPa | 960.4 ± 3.9
333.15 K, 68030 kPa | 970.2 ± 3.9
353.15 K, 100 kPa | 909.9 ± 3.6
353.15 K, 2510 kPa | 912 ± 3.7
353.15 K, 5000 kPa | 914.1 ± 3.7
353.15 K, 7530 kPa | 916.2 ± 3.7
353.15 K, 10010 kPa | 918.2 ± 3.7
353.15 K, 15000 kPa | 922.2 ± 3.7
353.15 K, 20000 kPa | 926 ± 3.7
353.15 K, 30010 kPa | 933.3 ± 3.7
353.15 K, 39840 kPa | 939.9 ± 3.8
353.15 K, 49990 kPa | 946.4 ± 3.8
353.15 K, 67990 kPa | 956.9 ± 3.8
373.15 K, 100 kPa | 893 ± 3.6
373.15 K, 2490 kPa | 895.3 ± 3.6
373.15 K, 2500 kPa | 895.3 ± 3.6
373.15 K, 5020 kPa | 897.6 ± 3.6
373.15 K, 7510 kPa | 899.9 ± 3.6
373.15 K, 10010 kPa | 902.1 ± 3.6
373.15 K, 15010 kPa | 906.5 ± 3.6
373.15 K, 19980 kPa | 910.6 ± 3.7
373.15 K, 30010 kPa | 918.5 ± 3.7
373.15 K, 39810 kPa | 925.7 ± 3.7
373.15 K, 50000 kPa | 932.6 ± 3.7
373.15 K, 68010 kPa | 943.8 ± 3.8
